Test results as given in patent US12636290B2, “BET inhibitors for modulating DUX4 expression in FSHD” (Saint Louis University, priority 2018, dated 2026).
Like-named read-outs stand apart in the source and are kept apart here.

Tested on: DUX4 expression (surrogate marker MBD3L2)
Experiment: Screening: qPCR analysis of DUX4 target gene MBD3L2 in differentiating MB200 FSHD2 muscle cells
Type: cell-based
Conditions: Homo sapiens, 40 hours, DUX4 expression inferred from surrogate marker MBD3L2 expression (qPCR, normalized to RPL30)
Experimental: Cells and Cell Culture. Primary human myoblast cell lines, immortalized by retroviral transduction of cyclin-dependent kinase 4 (CDK4) and human telomerase reverse transcriptase (hTERT) (Stadler, et al., 2011), were obtained from the Fields Center at the University of Rochester (world-wide-web at urmc.rochester.edu/fields-center.aspx). Immortalized myoblasts were grown in Ham's F-10 Nutrient Mix (Gibco, Waltham, MA, USA) supplemented with 20% HyClone Fetal Bovine Serum (GE Healthcare Life Sciences, Pittsburgh, PA, USA), 100 U/100 μg penicillin/streptomycin (Gibco), 10 ng/ml recombinant human fibroblast growth factor (Promega Corporation, Madison, WI, USA) and 1 μM dexamethasone (Sigma-Aldrich). Differentiation of myoblasts into myotubes was achieved by switching the fully confluent myoblast monolayer into Dulbecco's Modified Eagle Medium (DMEM) (Gibco) containing 1% horse serum (Gibco), 100 U/100 μg penicillin/streptomycin, 10 μg/ml insulin (Sigma-Aldrich) and 10 μg/ml transferrin (Sigma-Aldrich) (HS/IT media) or DMEM:F12 Nutrient Mixture (1:1, Gibco) supplemented with 2% KnockOut Serum Replacement (Gibco), 100 U/100 μg penicillin/streptomycin, 10 μg/ml insulin and 10 μg/ml transferrin (KSR media) for 2-6 days.
Screening: qPCR analysis of DUX4 target genes MBD3L2. For screening compounds, differentiating MB200 FSHD2 muscle cells were exposed to BET inhibitors at a variety of concentrations for 40 hours to determine the effects of the drugs on DUX4 expression. Cell lysates were prepared using Cells-to-Ct Bulk Lysis Reagents (Invitrogen, Waltham, MA, USA). Gene expression was measured by quantitative polymerase chain reaction (qPCR) was carried out on a QuantStudio 5 (Applied Biosystems, Waltham, MA, USA) using TaqMan Gene Expression Assays (Applied Biosystems) and TaqMan Fast Virus 1-Step Master Mix (Invitrogen). The relative expression levels of DUX4 target gene methyl-CpG binding domain protein 3 like 2 (MBD3L2), was normalized to that of the reference gene ribosomal protein L30 (RPL30), which was included in multiplex (two gene) PCR reactions. TaqMan Gene Expression Assay ID numbers: MBD3L2, Hs00544743_m1; RPL30, Hs00265497_m1. Data is expressed as relative expression with the expression in absence of inhibitors set to one.
Analysis of MBD3L2 expression in cultured FSHD2 cells. DUX4 mRNA is present in very low levels, even in differentiating FSHD2 myoblasts, so DUX4 target gene MBD3L2 was used as a surrogate marker of DUX4 expression. FSHD2 patient derived muscle cells were analyzed to determine whether BET inhibitors affect MBD3L2 expression, indicating a reduction in DUX4 expression.

`Cn1cc(-c2ccc3nc(-c4ccc(OCCN5CCC(F)(F)CC5)cc4)ccc3c2)c2cc[nH]c2c1=O` [SLU-2285, 4-{2-[4-(2-(4,4-difluoropiperidin-1-yl)ethoxy)phenyl]quinolin-6-yl}-6-methyl-1H-pyrrolo[2,3-c]pyridin-7(6H)-one] was tested, and the IC50 (read-out: DUX4* MT FSHD2: IC50) was 570 nM and the IC50 (read-out: DUX4* MT FSHD2 IC50) was 570 nM.
`Cn1cc(-c2ccc3nc(-c4ccc(OCCN5CCNC(=O)C5)cc4)ccc3c2)c2cc[nH]c2c1=O` [SLU-2242, 6-methyl-4-{2-[4-(2-(3-oxopiperazin-1-yl)ethoxy)phenyl]quinolin-6-yl}-1H-pyrrolo[2,3-c]pyridin-7(6H)-one] showed an IC50 (read-out: DUX4* MT FSHD2: IC50) of 93 nM and an IC50 (read-out: DUX4* MT FSHD2 IC50) of 93 nM.
`COc1ccc(C2CCN(c3ccc(-c4cn(C)c(=O)c5[nH]ccc45)cn3)CC2)cc1` [SLU-2108, 4-{6-[4-(4-methoxyphenyl)piperidin-1-yl]pyridin-3-yl}-6-methyl-1H-pyrrolo[2,3-c]pyridin-7(6H)-one] showed an IC50 (read-out: DUX4* MT FSHD2: IC50) of 280 nM and an IC50 (read-out: DUX4* MT FSHD2 IC50) of 280 nM.
`C[C@@H]1C(=O)N(C)CCN1CCCOc1ccc(-c2ccc3cc(-c4cn(C)c(=O)c5[nH]ccc45)ccc3n2)cc1` [SLU-2299, (R)-4-{2-[4-(3-(2,4-dimethyl-3-oxopiperazin-1-yl)propoxy)phenyl]quinolin-6-yl}-6-methyl-1H-pyrrolo[2,3-c]pyridin-7(6H)-one] showed an IC50 (read-out: DUX4* MT FSHD2: IC50) of 3.4 nM and an IC50 (read-out: DUX4* MT FSHD2 IC50) of 3.4 nM.
In the case of `Cn1cc(-c2ccc(N3CCC(c4ccc(OCCn5cncn5)cc4)CC3)nc2)c2cc[nH]c2c1=O` [SLU-2119, 4-{6-[4-(4-(2-(1H-1,2,4-triazol-1-yl)ethoxy)phenyl)piperidin-1-yl]pyridin-3-yl}-6-methyl-1H-pyrrolo[2,3-c]pyridin-7(6H)-one], the IC50 (read-out: DUX4* MT FSHD2: IC50) is reported as 130 nM and the IC50 (read-out: DUX4* MT FSHD2 IC50) is reported as 130 nM.
`C[C@@H]1C(=O)N(C)CCN1CCOc1ccc(-c2ccc3cc(-c4cn(C)c(=O)c5[nH]ccc45)ncc3c2)cc1` [SLU-2219, (R)-4-{7-[4-(2-(2,4-dimethyl-3-oxopiperazin-1-yl)ethoxy)phenyl]isoquinolin-3-yl}-6-methyl-1H-pyrrolo[2,3-c]pyridin-7(6H)-one] was tested, and the IC50 (read-out: DUX4* MT FSHD2: IC50) was 95 nM and the IC50 (read-out: DUX4* MT FSHD2 IC50) was 95 nM.
For `COc1ccc2cc(-c3cn(C)c(=O)c4[nH]ccc34)ccc2n1` [SLU-2294, 4-(2-methoxyquinolin-6-yl)-6-methyl-1H-pyrrolo[2,3-c]pyridin-7(6H)-one], the IC50 (read-out: DUX4* MT FSHD2: IC50) was 59 nM and the IC50 (read-out: DUX4* MT FSHD2 IC50) was 59 nM.
Work on `CCN1CCN(CCOc2ccc(-c3ccc4cc(-c5cn(C)c(=O)c6[nH]ccc56)ccc4n3)cc2)CC1=O` [SLU-2243, 4-{2-[4-(2-(4-ethyl-3-oxopiperazin-1-yl)ethoxy)phenyl]quinolin-6-yl}-6-methyl-1H-pyrrolo[2,3-c]pyridin-7(6H)-one] yielded an IC50 (read-out: DUX4* MT FSHD2: IC50) of 110 nM and an IC50 (read-out: DUX4* MT FSHD2 IC50) of 110 nM.
In the case of `C[C@H]1CN(C)C(=O)CN1CCOc1ccc(-c2ccc3cc(-c4cn(C)c(=O)c5[nH]ccc45)ccc3n2)cc1` [SLU-2287, (S)-4-{2-[4-(2-(2,4-dimethyl-5-oxopiperazin-1-yl)ethoxy)phenyl]quinolin-6-yl}-6-methyl-1,6-dihydro-7H-pyrrolo[2,3-c]pyridin-7-one], the IC50 (read-out: DUX4* MT FSHD2: IC50) is reported as 108 nM and the IC50 (read-out: DUX4* MT FSHD2 IC50) is reported as 108 nM.
`C[C@@H]1C(=O)N(C)CCN1CCOc1ccc(-c2ccc3cc(-c4cn(C)c(=O)c5[nH]ccc45)ccc3n2)cn1` [SLU-2240, (R)-4-{2-[6-(2-(2,4-dimethyl-3-oxopiperazin-1-yl)ethoxy)pyridin-3-yl]quinolin-6-yl}-6-methyl-1,6-dihydro-7H-pyrrolo[2,3-c]pyridin-7-one] gave an IC50 (read-out: DUX4* MT FSHD2: IC50) of 35 nM and an IC50 (read-out: DUX4* MT FSHD2 IC50) of 35 nM.
For `C=CCn1cc(-c2ccc3cc(-c4ccc(OCCN5CCN(C)C(=O)[C@H]5C)cc4)ccc3n2)c2cc[nH]c2c1=O` [SLU-2326, (R)-6-allyl-4-{6-[4-(2-(2,4-dimethyl-3-oxopiperazin-1-yl)ethoxy)phenyl]quinolin-2-yl}-1H-pyrrolo[2,3-c]pyridin-7(6H)-one], the IC50 (read-out: DUX4* MT FSHD2: IC50) was 130 nM and the IC50 (read-out: DUX4* MT FSHD2 IC50) was 130 nM.
`CC(=O)N1C[C@@H](C)N(CCOc2ccc(-c3ccc4cc(-c5cn(C)c(=O)c6[nH]ccc56)ccc4n3)cc2)[C@@H](C)C1` [SLU-2107, 4-{2-[4-(2-((2R,6S)-4-acetyl-2,6-dimethylpiperazin-1-yl)ethoxy)phenyl]quinolin-6-yl}-6-methyl-1H-pyrrolo[2,3-c]pyridin-7(6H)-one] was tested, and the IC50 (read-out: DUX4* MT FSHD2: IC50) was 48 nM and the IC50 (read-out: DUX4* MT FSHD2 IC50) was 48 nM.
In the case of `COc1cc(N2CCC(c3ccc(OCCN4[C@H](C)CN(C(C)=O)C[C@@H]4C)cc3)CC2)ncc1-c1cn(C)c(=O)c2[nH]ccc12` [SLU-2117, 4-{6-[4-(4-(2-((2R,6S)-4-acetyl-2,6-dimethylpiperazin-1-yl)ethoxy)phenyl)piperidin-1-yl]-4-methoxypyridin-3-yl}-6-methyl-1H-pyrrolo[2,3-c]pyridin-7(6H)-one], the IC50 (read-out: DUX4* MT FSHD2: IC50) is reported as 91 nM and the IC50 (read-out: DUX4* MT FSHD2 IC50) is reported as 91 nM.
Molecule `CCN1CCN(CCOc2ccc(-c3ccc4cc(-c5cn(C)c(=O)c6[nH]ccc56)ccc4n3)cc2)[C@H](C)C1=O` [SLU-2611, (R)-4-{2-[4-(2-(4-ethyl-2-methyl-3-oxopiperazin-1-yl)ethoxy)phenyl]quinolin-6-yl}-6-methyl-1H-pyrrolo[2,3-c]pyridin-7(6H)-one] has an IC50 (read-out: DUX4* MT FSHD2: IC50) of 41 nM and an IC50 (read-out: DUX4* MT FSHD2 IC50) of 41 nM.
`C[C@@H]1CCC[C@H](C)N1CCOc1ccc(-c2ccc3cc(-c4cn(C)c(=O)c5[nH]ccc45)ccc3n2)cc1` [SLU-2233, 4-{2-[4-(2-((2R,6S)-2,6-dimethylpiperidin-1-yl)ethoxy)phenyl]quinolin-6-yl}-6-methyl-1H-pyrrolo[2,3-c]pyridin-7(6H)-one] showed an IC50 (read-out: DUX4* MT FSHD2: IC50) of 290 nM and an IC50 (read-out: DUX4* MT FSHD2 IC50) of 290 nM.
`C[C@@H]1C(=O)N(C)CCN1CCOc1ccc(C#Cc2ccc(-c3cn(C)c(=O)c4[nH]ccc34)cc2)cc1` [SLU-2226, (R)-4-{4-[(4-(2-(2,4-dimethyl-3-oxopiperazin-1-yl)ethoxy)phenyl)ethynyl]phenyl}-6-methyl-1H-pyrrolo[2,3-c]pyridin-7(6H)-one] gave an IC50 (read-out: DUX4* MT FSHD2: IC50) of 47 nM and an IC50 (read-out: DUX4* MT FSHD2 IC50) of 47 nM.
Work on `C[C@@H]1C(=O)N(C)CCN1CCOc1ccc(C2CCN(c3ncc(-c4cn(C)c(=O)c5[nH]ccc45)cn3)CC2)cc1` [SLU-2091, (R)-4-{2-[4-(4-(2-(2,4-dimethyl-3-oxopiperazin-1-yl)ethoxy)phenyl)piperidin-1-yl]pyrimidin-5-yl}-6-methyl-1H-pyrrolo[2,3-c]pyridin-7(6H)-one] yielded an IC50 (read-out: DUX4* MT FSHD2: IC50) of 20 nM and an IC50 (read-out: DUX4* MT FSHD2 IC50) of 20 nM.
In the case of `CN(C)CCOc1ccc(C2CCN(c3ccc(-c4cn(C)c(=O)c5[nH]ccc45)cn3)CC2)cc1` [SLU-2109, 4-{6-[4-(4-(2-(dimethylamino)ethoxy)phenyl)piperidin-1-yl]pyridin-3-yl}-6-methyl-1H-pyrrolo[2,3-c]pyridin-7(6H)-one], the IC50 (read-out: DUX4* MT FSHD2: IC50) is reported as 33 nM and the IC50 (read-out: DUX4* MT FSHD2 IC50) is reported as 33 nM.
Molecule `C[C@@H]1C(=O)N(C)CCN1CCOc1ccc2cc(-c3cn(C)c(=O)c4[nH]ccc34)ccc2n1` [SLU-2348, (R)-4-{2-[2-(2,4-dimethyl-3-oxopiperazin-1-yl)ethoxy]quinolin-6-yl}-6-methyl-1H-pyrrolo[2,3-c]pyridin-7(6H)-one] has an IC50 (read-out: DUX4* MT FSHD2: IC50) of 140 nM and an IC50 (read-out: DUX4* MT FSHD2 IC50) of 140 nM.
`C[C@@H]1C(=O)N(C)CCN1CCCOc1cccc(-c2ccc3cc(-c4cn(C)c(=O)c5[nH]ccc45)ccc3n2)c1` [SLU-2292, (R)-4-{2-[3-(3-(2,4-dimethyl-3-oxopiperazin-1-yl)propoxy)phenyl]quinolin-6-yl}-6-methyl-1H-pyrrolo[2,3-c]pyridin-7(6H)-one] gave an IC50 (read-out: DUX4* MT FSHD2: IC50) of 25 nM and an IC50 (read-out: DUX4* MT FSHD2 IC50) of 25 nM.
`CN1CCN(CCOc2ccc(-c3ccc4cc(-c5cn(C)c(=O)c6[nH]ccc56)ccc4n3)cc2)CC1` [SLU-2288] gave an IC50 (read-out: DUX4* MT FSHD2: IC50) of 250 nM and an IC50 (read-out: DUX4* MT FSHD2 IC50) of 250 nM.
`C[C@@H]1C(=O)N(C)CCN1CCCOc1ccc2cc(-c3cn(C)c(=O)c4[nH]ccc34)ccc2n1` [SLU-2347, (R)-4-{2-[3-(2,4-dimethyl-3-oxopiperazin-1-yl)propoxy]quinolin-6-yl}-6-methyl-1H-pyrrolo[2,3-c]pyridin-7(6H)-one] showed an IC50 (read-out: DUX4* MT FSHD2: IC50) of 85 nM and an IC50 (read-out: DUX4* MT FSHD2 IC50) of 85 nM.
Work on `C[C@@H]1CN(C)C(=O)CN1CCOc1ccc(-c2ccc3cc(-c4cn(C)c(=O)c5[nH]ccc45)ccc3n2)cc1` [SLU-2286, (R)-4-{2-[4-(2-(2,4-dimethyl-5-oxopiperazin-1-yl)ethoxy)phenyl]quinolin-6-yl}-6-methyl-1H-pyrrolo[2,3-c]pyridin-7(6H)-one] yielded an IC50 (read-out: DUX4* MT FSHD2: IC50) of 63 nM and an IC50 (read-out: DUX4* MT FSHD2 IC50) of 63 nM.
